Results as given in US9249097B2, “3-aminocarbazole compound, pharmaceutical composition containing it and preparation method therefor” (AZIENDE CHIM. RIUN. ANG. FRANC. A.C.R.A.F. S.p.A., priority 2008, dated 2016).

Columns and labels:
[1] = In vivo bioavailability, oral cassette dosing; settings: oral 5 mg/kg; for Cmax / Tmax / AUC(0-t): plasma; for AUC(0-t): first seven hours, read-out: AUC0-7
Method: This test allowed evaluation of the in vivo bioavailability of the compounds of the invention, thus making it possible to evaluate and compare the pharmacokinetic profile of the test compounds.
The tests were performed using the cassette method, i.e. by administering orally several products simultaneously to the same animal, at a dose of 5 mg/kg. The products were suspended in methylcellulose (MTC). The treated animals were catheterized for the serial collection of blood samples performed by means of an automatic sampling system. The plasmatic concentrations of the products were measured by HPLC/MS/MS. The profiles of the plasmatic concentrations over time made it possible to evaluate the relative bioavailability of the test products in terms of rate (tmax and Cmax) and […] (AUC). The slope of the curve in the end portion also allowed a comparative evaluation of the rate of elimination of the compounds from the plasma, the slower the rate, the lower the slope. Three animals were treated for each combination of compounds.
The results, expressed as the Cmax, i.e. as the maximum concentration of drug reached in the plasma, Tmax, i.e. the time required to reach the maximum drug concentration in the plasma, and AUC0-7, i.e. the area under the curve of the plasmatic concentrations of drug over time, measured in the first seven hours after administration, are given in Table 5.

mice = assay: Acetic acid-induced writhing in mice; assay type: in vivo; settings: for No. of writhes: 20 minutes after acetic acid; for % of inhibition: writhes vs vehicle
Method: The test compound was evaluated in the model of acetic acid-induced writhing in mice (Stock J. L. et al., J. Clin. Inv. 2001, 107: 325-331). This test allows evaluation of the antinociceptive activity of the compounds of the invention in a model of inflammatory pain.
Female CD-1 mice weighing 25-30 g were used for the test. The animals were treated intraperitoneally with the test compound (0.1-10 mg/kg) suspended in methylcellulose (MTC). The control animals were treated with the vehicle alone (MTC) via the same route.
Half an hour after the treatment, an intraperitoneal injection of acetic acid (0.7% v/v in physiological saline, 16 μl/g of body weight) was given to the animals to induce inflammatory pain and to check the effects of the test compound on the nociceptive response.
Immediately after the administration of acetic acid and for the following 20 minutes the number of writhes was measured, which represents the parameter for evaluation of the nociceptive response.

[2] = Metabolic stability in human hepatic microsomes; settings: 1 μM
Method: (§1) This test allows evaluation of the metabolic stability of the compounds of the invention and of the comparative compounds in rats and in man.
(§2) The compounds to be analysed, at a final concentration of 0 and 1 μM, were placed in a suspension containing the pool of microsomes at a final concentration of 0.5 mg/mL in a final volume of 200 μL, in 96-well plates. The test was standardized with phosphate buffer (75 mM, pH 7.4) and with the NADPH regenerating system (MgCl2: 3.3 mM; G6P: 3.3 mM; G6PD: 0.4 U/mL; NADP+: 1.3 mM). […] The samples were incubated at 37° C. in a humidified incubator. At time 0 and after 60 minutes, 100 μL of acetonitrile containing the internal standard (0.2 μM of metoprolol and 0.4 μM of diclofenac) were added to stop the reaction.
(§3) The samples were centrifuged before analysis. The HPLC/MS/MS analysis was performed using an electrospray ion source in positive ionization and SRM (Single Reaction Mode). The chromatographic conditions entail the use of an XDB-C18 column (2.1×50 mm, Agilent) and a gradient from 5% to 91% of acetonitrile in water containing 0.1% formic acid (total runtime equal to 6 minutes); the flow rate was 0.5 ml/minute.
(§4) The areas of the peaks for the test compounds were integrated and the results expressed as the analyte area/internal standard (PAR) area ratio. For each time, two samples were analysed and the mean value calculated. The percentage of the value of remaining compound was calculated as: % unmetabolized compound=100*(mean PARTfinal/mean PART0).

[3] = Metabolic stability in rat hepatic microsomes; settings: 1 μM
Method: as §1, §2, §3, §4

production of PGE2 = assay: Inhibition of PGE2 production in IL-1β-stimulated A549 cells (EIA); assay type: cell-based; settings: Homo sapiens, IL-1β 1 ng/ml, 22 hours
Source text: (§5) This test allows evaluation of the inhibitory capacity on the production of the PGE2 and the selectivity relative to the production of the PGF2α.
(§6) The cell line A549, human pulmonary adenocarcinoma, was used, which is particularly sensitive to stimulation with pro-inflammatory cytokines, for instance IL-1β, and, in response to this stimulation, is particularly active in the production and release of two prostanoids: PGE2 and PGF2α (Thoren S. Jakobsson P-J, 2000).
(§7) The cells were stimulated with IL-1β (1 ng/ml) and simultaneously treated with the test compound for 22 hours in an appropriate culture medium (DMEM—Dulbecco's Modified Eagle's Medium) supplemented with 5% foetal calf serum and L-glutamine (4 mM final) in an incubator at 37° C. and at a CO2 concentration of 5%.
(§8) After the incubation, the amount of PGE2 and PGF2α produced and released into the supernatant were assayed using an EIA kit (produced and sold by Cayman Chemicals, Ann Arbor, Mich., USA).
(§9) The comparative compound used was indomethacin at a concentration of 10 nM (Sigma-Aldrich), a non-steroidal anti-inflammatory drug that inhibits in equal measure both PGE2 and PGF2α.
(§10) The results, expressed as the IC50 values, i.e. as the concentration of compound that inhibits 50% of the production of PGE2 and of PGF2α relative to the cells that have been stimulated, but not treated with the same compound, are given in Table 2. The inactivity or the reduced activity of the compound on the biosynthesis of PGF2α is an indication of selectivity towards the production of PGE2 and thus of selective inhibition of mPGES-1.

production of PGF2α = assay: Inhibition of PGF2α production in IL-1β-stimulated A549 cells (EIA); assay type: cell-based; settings: Homo sapiens, IL-1β 1 ng/ml, 22 hours
Source text: as §5, §6, §7, §8, §9, §10

in vitro = settings: human, Caco-2, pH 7.4
Method: This test allows evaluation of the amount absorbed by the intestinal barrier of the compounds of the invention and of the comparative compounds using the Caco-2 cell line as an in vitro model of intestinal barrier. The permeability test on Caco-2 cells represents an in vitro system approved for predicting and estimating the in vivo intestinal absorption of a drug. When the Caco-2 cells are cultured on a porous filter for about 21 days, they have the capacity to differentiate into enterocytes.
The compounds undergoing the test were diluted from a 10 mM stock solution in HBSS to a final concentration of 10 μM. The system consisted of a confluent cellular monolayer in culture for 21-28 days.
Each compound was tested in triplicate, bidirectionally, at pH 7.4, from the apical to the basolateral compartment (A→B) and from the basolateral to the apical compartment (B→A).
The samples collected at the given time were analysed by HPLC-MS/MS, using an electrospray ion source in positive ionization and SRM (Single Reaction Mode). The chromatographic conditions entailed the use of an XDB-C18 column (2.1×50 mm, Agilent) with a gradient from 5% to 91% of acetonitrile in water containing 0.1% formic acid (total runtime equal to 6.5 minutes) and a flow rate of 0.5 ml/minute. Metoprolol was used as the internal standard.
The concentration data were used to calculate the apparent permeability values (Papp), and the mean and standard deviation of the Papp were calculated.
The flux ratio was calculated as Papp(B→A)/Papp(A→B). The recovery percentage was calculated as: (amount in the receiving compartment+amount in the donor compartment)/nominal amount
The area of the peaks of the test compounds were integrated and the results were expressed as the analyte area/internal standard area ratio and corrected for the dilution factor used during the preparation of the sample. The apparent permeability coefficients were calculated using the following equation: […]
in which: • VA volume in the receiving well (0.25 mL for the test from A→B, 0.075 mL for the test from B→A) • Area area of the membrane surface (0.11 cm^2) • Time total transport time (3600 seconds)

[4] = Sprague-Dawley, rat, microsomes, 1 h, pH 7.4
[5] = microsomes 0.5 mg/mL, 60 minutes, 37° C.

| Compound | melting point | % unmetabolized compound, Man ([2]; human, microsomes, 1 h, pH 7.4) | % unmetabolized compound, Rat [3, 4] | IC50 (production of PGE2) | IC50 (production of PGF2α) | Papp at 3600 seconds, 10 μM (in vitro) | further results |
| --- | --- | --- | --- | --- | --- | --- | --- |
| O=C(Nc1ccc2c(c1)c1ccccc1n2CCO)c1ccccc1C(F)(F)F [Compound 1, N-[9-(2-hydroxyethyl)-9H-carbazol-3-yl]-2-(trifluoromethyl)benzamide] | 176 to 177 °C | 81% | 58% | 2900 nM | > 100 µM | > 20 ×10⁻⁶ cm/s | bioavailability / absorption in words [1]: good bioavailability characteristics; Cmax [1]: 1200 ng/mL; Tmax [1]: 1.5 h; AUC(0-t) [1]: 5750 ng·h/mL; No. of writhes (mice; 0.1 mg/kg intraperitoneally): 38.4 ± 3.99; % of inhibition (mice; 0.1 mg/kg intraperitoneally): 21%; No. of writhes (mice; 1 mg/kg intraperitoneally): 31.5 ± 5.72; % of inhibition (mice; 1 mg/kg intraperitoneally): 35%; No. of writhes (mice; 10 mg/kg intraperitoneally): 12.8 ± 2.46; % of inhibition (mice; 10 mg/kg intraperitoneally): 74% |
| CC(C)(O)Cn1c2ccccc2c2cc(NC(=O)c3ccccc3C(F)(F)F)ccc21 [Compound 2, N-[9-(2-hydroxy-2-methylpropyl)-9H-carbazol-3-yl]-2-(trifluoro-methyl)benzamide] | 179 to 181 °C | 82% | 68% | 2300 nM | > 100 µM | > 20 ×10⁻⁶ cm/s | bioavailability / absorption in words [1]: good bioavailability characteristics; Cmax [1]: 984 ng/mL; Tmax [1]: 4.3 h; AUC(0-t) [1]: 5400 ng·h/mL |
| CC(C)(O)CCn1c2ccccc2c2cc(NC(=O)c3ccccc3C(F)(F)F)ccc21 [Compound 3, N-[9-(3-hydroxy-3-methylbutyl)-9H-carbazol-3-yl]-2-(trifluoromethyl)benzamide] | 188 to 189 °C | 77% | 65% | 1400 nM | > 100 µM | > 20 ×10⁻⁶ cm/s | bioavailability / absorption in words [1]: good bioavailability characteristics; Cmax [1]: 457 ng/mL; Tmax [1]: 1.8 h; AUC(0-t) [1]: 2670 ng·h/mL |
| CC(=O)Cn1c2ccccc2c2cc(NC(=O)c3ccccc3C(F)(F)F)ccc21 [Compound 4, N-[9-(2-oxopropyl)-9H-carbazol-3-yl]-2-(trifluoromethyl)benzamide] | 223 to 226 °C | 7% | 58% | 5600 nM | > 100 µM | > 20 ×10⁻⁶ cm/s | – |
| O=C(Nc1ccc2c(c1)c1ccccc1n2CCO)c1ccccc1Cl [Compound 5, 2-chloro-N-[9-(2-hydroxyethyl)-9H-carbazol-3-yl]benzamide] | 168 to 169 °C | 76% | 63% | – | – | > 20 ×10⁻⁶ cm/s | – |
| CC(C)(O)CCn1c2ccccc2c2cc(NC(=O)c3ccccc3Cl)ccc21 [Compound 6, 2-chloro-N-[9-(3-hydroxy-3-methylbutyl)-9H-carbazol-3-yl]benzamide] | 120 to 124 °C | 65% | 74% | 600 nM | > 100 µM | > 20 ×10⁻⁶ cm/s | – |
| C[C@H]1O[C@@H](O[C@H]2[C@@H](O)C[C@H](O[C@H]3[C@@H](O)C[C@H](O[C@H]4CC[C@@]5(C)[C@H](CC[C@@H]6[C@@H]5C[C@@H](O)[C@]5(C)[C@@H](C7=CC(=O)OC7)CC[C@]65O)C4)O[C@@H]3C)O[C@@H]2C)C[C@H](O)[C@@H]1O [Digoxin, digoxin, reference compound] | – | – | – | – | – | < 2 ×10⁻⁶ cm/s | – |
| COc1ccc2c(c1)c(CC(=O)O)c(C)n2C(=O)c1ccc(Cl)cc1 [Indomethacin, indomethacin, reference compound] | – | – | – | 5 nM | 0.003 µM | – | – |
| CC(C)NCC(O)COc1cccc2ccccc12 (stereo not drawn) [Propranolol, propranolol, reference compound] | – | – | – | – | – | > 20 ×10⁻⁶ cm/s | – |
| C[C@]12CC[C@H]3[C@@H](CCC4=CC(=O)CC[C@@]43C)[C@@H]1CC[C@@H]2O [Testosterone, testosterone, reference compound] | – | – | – | – | – | – | % unmetabolized compound, Man [2, 5]: 27%; % unmetabolized compound, Rat [3, 5]: 0% |
| CC(=O)CC(c1ccccc1)c1c(O)c2ccccc2oc1=O (stereo not drawn) [Warfarin, warfarin, reference compound] | – | 103% | 97% | – | – | – | – |
